A short description of test [1]: A cytotoxicity screen of small molecule inhibitors of the PhoP region in Salmonella typhi identified in the primary screen. [Related pubchem assays: 1850, 1864, 1985 ]. The test is classed as functional.
Test [2] can be described thus: Luminescence Cell-Based Dose Confirmation HTS to Identify Inhibitors of Polyadenylation. Format: functional.
The next test deals with T1, Leucine aminopeptidase (Plasmodium falciparum 3D7, UniProt Q8IL11).
T1 sequence (Q8IL11 whole entry): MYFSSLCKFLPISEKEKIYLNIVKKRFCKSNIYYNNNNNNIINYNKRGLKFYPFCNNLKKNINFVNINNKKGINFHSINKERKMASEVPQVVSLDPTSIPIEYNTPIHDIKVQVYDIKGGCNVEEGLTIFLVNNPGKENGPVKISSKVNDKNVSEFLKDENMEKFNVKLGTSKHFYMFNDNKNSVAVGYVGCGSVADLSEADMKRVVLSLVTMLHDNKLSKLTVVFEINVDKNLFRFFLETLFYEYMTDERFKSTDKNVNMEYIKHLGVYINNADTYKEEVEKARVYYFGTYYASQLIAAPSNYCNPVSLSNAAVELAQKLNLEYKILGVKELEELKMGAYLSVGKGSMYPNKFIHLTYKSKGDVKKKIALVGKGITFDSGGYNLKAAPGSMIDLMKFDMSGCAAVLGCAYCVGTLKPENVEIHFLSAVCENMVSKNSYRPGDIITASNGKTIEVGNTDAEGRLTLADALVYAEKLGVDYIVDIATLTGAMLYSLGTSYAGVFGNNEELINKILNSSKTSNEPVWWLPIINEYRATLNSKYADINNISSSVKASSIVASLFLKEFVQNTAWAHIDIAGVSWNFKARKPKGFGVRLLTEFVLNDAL
The test is described as follows: P. falciparum M17LAP inhibitors, primary screen, biochemical, fluorogenic H-Leu-NHMec substrate, 1536-well (AID 1619). The test is classed as functional.

A further test has as its target T2, Caspase-6 (Homo sapiens, UniProt P55212).
T2 sequence (P55212 whole entry): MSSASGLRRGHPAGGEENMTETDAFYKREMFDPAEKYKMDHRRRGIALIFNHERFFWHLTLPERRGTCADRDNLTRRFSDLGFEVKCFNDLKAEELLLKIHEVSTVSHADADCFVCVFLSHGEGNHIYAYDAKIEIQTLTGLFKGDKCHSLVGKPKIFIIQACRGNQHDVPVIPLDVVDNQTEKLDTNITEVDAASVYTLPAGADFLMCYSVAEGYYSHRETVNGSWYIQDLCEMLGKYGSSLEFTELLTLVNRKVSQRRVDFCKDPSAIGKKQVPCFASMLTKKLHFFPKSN
The test is described as follows: human caspase-6 inhibitors, dose response, biochemical, VEID-R110 fluorescence, cherry-pick (AID 720632).

The test system of the next test is Vero. The test is described as follows: host cell cytotoxicity of antiviral hits, dose response, cytotoxicity control for West Nile virus antiviral project, secondary assay (AID 1650). The test is classed as functional. To be noted: Chlorocebus sabaeus.
Test [3] is described as follows: growth suppression of PTEN-null colon cells, dose response, cell-based, HCT116 PTEN knockout (AID 1047).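 Note: HCT116 colon tumor cells with PTEN knocked out; cells exposed to compound for 60 hours before readout; potency for loss of cell viability measured by luminescence.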 Format: functional.
Test [4] is described as follows: growth suppression of beta-catenin-knockout colon cells, dose response, cell-based, HCT116, human colon tumor (AID 1045).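 Note: HCT116 colon tumor cells with beta catenin knocked out; cells exposed to compound for 60 hours.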 Format: functional.
Test [5] in a line: A Cell Based Secondary Assay To Explore Cytotoxicity of Compounds that Sensitize Mycobacterium Tuberculosis to Beta-Lactam Antibiotics. The test is classed as functional.
Test [6] addresses DNA dC->dU-editing enzyme APOBEC-3G (Homo sapiens, UniProt Q9HC16). The test is described as follows: Dose Response confirmation of small molecule APOBEC3G DNA Deaminase Inhibitors via a fluorescence-based single-stranded DNA deaminase assay. [Related pubchem assays (depositor defined):AID493012, AID493028]. The test is classed as functional.
Test [7] is described as follows: THP-1 cell cytotoxicity, dose response, cytotoxicity control for Vif-APOBEC3G degradation inhibitor project, THP-1 cells (AID 1117359). The test is classed as functional. To be noted: Human immunodeficiency virus 1, THP-1.
The nature of test [8]: Luminescence Cell-Based Dose Response to Identify Activators of 5'UTR Stem-Loop Driven Prion Protein mRNA Translation in H4-C Neuroglioblastoma Cells. [Related pubchem assays: 1829 (Project Summary), 1814 (Primary HTS)]. Format: functional.
The nature of test [9]: Luminescence Cell-Based Dose Response HTS to Identify Activators of Luciferase Translation or Activity in H4 […] Cells. [Related pubchem assays: 1829 (Project Summary), 1814 (Primary HTS)]. Format: functional.
For another test, the system named is H4. The test is described as follows: Luminescence Cell-Based Dose Response HTS to Identify Activators of 5'UTR Stem-Loop Driven Prion Protein mRNA Translation in H4 Neuroglioblastoma Cells. [Related pubchem assays: 1829 (Project Summary), 1814 (Primary HTS)]. To be noted: Homo sapiens. Format: functional.
The nature of test [10]: Luminescence Cell-Based Dose Response to Identify Activators of Luciferase Translation or Activity in H4-C Neuroglioblastoma Cells. [Related pubchem assays: 1829 (Project Summary), 1814 (Primary HTS)]. The test is classed as functional.
A short description of test [11]: Luminescence Cell-Based Dose Confirmation to Identify Activators of 5'UTR Stem-Loop Driven Alpha-Synuclein mRNA Translation in H4 Neuroglioblastoma Cells. [Related pubchem assays: 1829 (Project Summary), 1814 (Primary HTS)]. Format: functional.
The next test addresses T3, Aspartyl aminopeptidase (Plasmodium falciparum 3D7, UniProt Q8I2J3).
T3 sequence (Q8I2J3 whole entry): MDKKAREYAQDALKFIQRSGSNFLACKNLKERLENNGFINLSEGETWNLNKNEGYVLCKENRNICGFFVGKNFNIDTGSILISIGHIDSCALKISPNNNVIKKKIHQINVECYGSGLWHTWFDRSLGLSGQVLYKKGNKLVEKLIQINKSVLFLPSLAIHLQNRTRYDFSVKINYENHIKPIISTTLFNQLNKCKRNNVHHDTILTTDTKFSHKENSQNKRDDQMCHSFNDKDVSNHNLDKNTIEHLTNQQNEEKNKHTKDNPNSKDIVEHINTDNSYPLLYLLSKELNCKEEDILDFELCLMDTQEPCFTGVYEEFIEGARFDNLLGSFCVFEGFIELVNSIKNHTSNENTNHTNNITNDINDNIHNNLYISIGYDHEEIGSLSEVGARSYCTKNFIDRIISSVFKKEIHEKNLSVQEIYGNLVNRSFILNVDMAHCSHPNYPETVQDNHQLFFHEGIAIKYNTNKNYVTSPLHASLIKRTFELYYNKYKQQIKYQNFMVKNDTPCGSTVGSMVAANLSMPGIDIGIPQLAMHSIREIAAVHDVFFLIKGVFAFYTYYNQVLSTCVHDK

The target of another test is Procathepsin L (Homo sapiens, UniProt P07711).
The next test concerns the target Large T antigen (Simian virus 40, UniProt P03070). The test is classed as functional, Betapolyomavirus macacae.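 Note: Confirmatory-stage PubChem screen for compounds that inhibit SV40 T antigen.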
In test [12] the target is Induced myeloid leukemia cell differentiation protein Mcl-1 (Homo sapiens, UniProt Q07820). The test is classed as functional.
The next test concerns the target T4, Aminopeptidase N (Plasmodium falciparum FcB1/Columbia, UniProt O96935).
T4 sequence (O96935 whole entry): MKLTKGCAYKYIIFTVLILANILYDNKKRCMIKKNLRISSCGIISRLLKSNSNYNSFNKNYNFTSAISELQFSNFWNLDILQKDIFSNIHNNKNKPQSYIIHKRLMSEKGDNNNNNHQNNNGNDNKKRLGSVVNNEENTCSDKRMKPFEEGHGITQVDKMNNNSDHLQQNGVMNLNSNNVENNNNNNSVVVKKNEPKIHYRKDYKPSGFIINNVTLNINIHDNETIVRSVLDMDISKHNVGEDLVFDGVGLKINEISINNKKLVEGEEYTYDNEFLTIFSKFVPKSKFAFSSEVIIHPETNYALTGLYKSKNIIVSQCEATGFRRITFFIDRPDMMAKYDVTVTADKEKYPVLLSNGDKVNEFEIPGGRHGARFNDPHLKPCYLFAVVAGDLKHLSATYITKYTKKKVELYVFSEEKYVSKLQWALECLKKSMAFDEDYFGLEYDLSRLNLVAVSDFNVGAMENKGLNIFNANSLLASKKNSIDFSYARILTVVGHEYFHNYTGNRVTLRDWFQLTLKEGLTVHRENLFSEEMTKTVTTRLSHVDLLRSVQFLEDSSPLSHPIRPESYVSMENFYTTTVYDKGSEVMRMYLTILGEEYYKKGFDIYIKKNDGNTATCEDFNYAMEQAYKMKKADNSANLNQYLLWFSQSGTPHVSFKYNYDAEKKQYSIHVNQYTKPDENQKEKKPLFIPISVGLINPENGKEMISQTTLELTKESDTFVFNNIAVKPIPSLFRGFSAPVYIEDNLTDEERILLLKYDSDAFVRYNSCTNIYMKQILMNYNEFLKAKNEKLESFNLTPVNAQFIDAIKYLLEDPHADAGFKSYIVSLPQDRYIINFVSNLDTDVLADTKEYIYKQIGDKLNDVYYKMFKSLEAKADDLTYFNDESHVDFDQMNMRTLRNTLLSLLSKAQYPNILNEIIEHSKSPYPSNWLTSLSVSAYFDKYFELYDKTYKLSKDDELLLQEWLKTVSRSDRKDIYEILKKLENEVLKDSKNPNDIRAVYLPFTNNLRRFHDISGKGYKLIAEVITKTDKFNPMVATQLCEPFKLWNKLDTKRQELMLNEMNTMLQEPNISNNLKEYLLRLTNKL
The test is described as follows: P. falciparum M1AAP inhibitors, biochemical, fluorogenic H-Leu-NHMec substrate, 1536-well (AID 1445). More on the design: species or system Plasmodium falciparum 3D7, 3D7.

Test [13] has as its target FAD-linked sulfhydryl oxidase ALR (Homo sapiens, UniProt P55789). In words: inhibitors of human ALR sulfhydryl oxidase, dose response, biochemical, H2O2 detection, luminescence, cherry-pick (AID 493248).

Data on 18 compounds can be found in ChEMBL document CHEMBL1201862, “PubChem BioAssay data set” (2004).

The source made the active and inactive calls.

In general, EC50 refers to the midpoint of the concentration-response curve. As usually defined, the IC50 is the midpoint of a concentration-inhibition curve. Usually AC50 stands for the concentration at which the activity in the assay is half-maximal. The term CC50 denotes the concentration at which the toxic effect on the cells reaches its halfway point.

Sequence of DNA dC->dU-editing enzyme APOBEC-3G (Q9HC16 whole entry): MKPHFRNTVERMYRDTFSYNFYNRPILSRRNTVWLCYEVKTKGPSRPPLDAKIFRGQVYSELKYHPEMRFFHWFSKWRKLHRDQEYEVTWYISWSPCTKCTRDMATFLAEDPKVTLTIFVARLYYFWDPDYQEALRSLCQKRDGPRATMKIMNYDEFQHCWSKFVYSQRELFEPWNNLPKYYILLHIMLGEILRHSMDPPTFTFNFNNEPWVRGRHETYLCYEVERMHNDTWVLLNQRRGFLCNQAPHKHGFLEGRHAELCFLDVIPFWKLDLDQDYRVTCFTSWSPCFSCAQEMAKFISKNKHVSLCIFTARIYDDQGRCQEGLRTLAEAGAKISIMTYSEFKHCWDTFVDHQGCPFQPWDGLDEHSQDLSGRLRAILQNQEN
Sequence of Large T antigen (P03070 whole entry): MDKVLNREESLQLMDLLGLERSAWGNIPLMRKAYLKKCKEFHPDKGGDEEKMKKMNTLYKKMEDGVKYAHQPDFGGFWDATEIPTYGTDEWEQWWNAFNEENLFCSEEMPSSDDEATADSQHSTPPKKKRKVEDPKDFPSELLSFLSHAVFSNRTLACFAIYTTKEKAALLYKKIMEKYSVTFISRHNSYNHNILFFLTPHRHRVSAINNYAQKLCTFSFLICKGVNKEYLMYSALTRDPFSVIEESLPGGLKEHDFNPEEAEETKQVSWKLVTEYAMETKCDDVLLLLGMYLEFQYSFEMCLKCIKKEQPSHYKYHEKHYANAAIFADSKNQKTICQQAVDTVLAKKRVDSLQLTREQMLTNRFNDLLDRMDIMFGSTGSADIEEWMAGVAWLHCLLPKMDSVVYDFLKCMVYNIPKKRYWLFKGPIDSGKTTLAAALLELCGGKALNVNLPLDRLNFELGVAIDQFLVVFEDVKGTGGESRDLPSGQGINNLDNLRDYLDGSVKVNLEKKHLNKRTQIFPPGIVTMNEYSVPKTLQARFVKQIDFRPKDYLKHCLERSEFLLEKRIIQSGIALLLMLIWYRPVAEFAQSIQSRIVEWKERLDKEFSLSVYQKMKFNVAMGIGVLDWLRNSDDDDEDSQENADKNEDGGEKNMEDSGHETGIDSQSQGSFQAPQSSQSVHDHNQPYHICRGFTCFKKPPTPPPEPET
Sequence of Induced myeloid leukemia cell differentiation protein Mcl-1 (Q07820 whole entry): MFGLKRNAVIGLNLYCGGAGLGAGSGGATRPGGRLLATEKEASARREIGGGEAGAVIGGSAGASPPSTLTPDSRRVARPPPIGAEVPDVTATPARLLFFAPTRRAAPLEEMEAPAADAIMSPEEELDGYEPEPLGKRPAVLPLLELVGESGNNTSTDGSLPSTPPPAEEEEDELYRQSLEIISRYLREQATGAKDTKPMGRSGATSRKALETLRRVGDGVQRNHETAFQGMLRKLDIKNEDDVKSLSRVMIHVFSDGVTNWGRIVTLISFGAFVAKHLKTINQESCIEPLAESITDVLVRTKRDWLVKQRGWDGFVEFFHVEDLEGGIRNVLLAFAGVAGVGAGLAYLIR
Sequence of Procathepsin L (P07711 whole entry): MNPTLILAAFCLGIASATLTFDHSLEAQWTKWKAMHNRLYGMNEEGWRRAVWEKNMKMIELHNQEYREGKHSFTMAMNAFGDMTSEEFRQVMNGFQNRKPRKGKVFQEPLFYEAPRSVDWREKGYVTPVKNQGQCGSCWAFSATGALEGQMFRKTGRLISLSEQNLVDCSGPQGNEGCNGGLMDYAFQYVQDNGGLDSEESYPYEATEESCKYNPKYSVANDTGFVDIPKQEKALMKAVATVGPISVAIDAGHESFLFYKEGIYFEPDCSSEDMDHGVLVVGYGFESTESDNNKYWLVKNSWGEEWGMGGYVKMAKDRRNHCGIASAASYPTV
Sequence of FAD-linked sulfhydryl oxidase ALR (P55789 whole entry): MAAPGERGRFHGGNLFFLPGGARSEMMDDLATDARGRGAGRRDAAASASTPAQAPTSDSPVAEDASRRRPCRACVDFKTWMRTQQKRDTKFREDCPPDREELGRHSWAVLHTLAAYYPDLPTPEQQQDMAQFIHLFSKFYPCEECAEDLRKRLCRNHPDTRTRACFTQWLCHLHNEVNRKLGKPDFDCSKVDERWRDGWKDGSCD

Regarding `CCN1CCN(C(=O)c2cc3cc(Cl)ccc3[nH]2)CC1`, in test [1], the EC50 is > 50 µM (active). In the case of `O=C(NNC(=S)NC1CC2C=CC1C2)c1cccnc1` (configuration not stated), the EC50 in test [2] is recorded as > 120 µM (not active). For the compound `O=C1CC(c2ccc(Cl)cc2)N2CCNC2=C1C(=O)Nc1ccccc1` (configuration not stated), in test [1], the concentration giving a half-maximal response (EC50) was > 50 µM (active).

`O=C(O)CCC(=O)Nc1sc2c(c1C(=O)Nc1ccccc1)CCCCC2`: the IC50 at Leucine aminopeptidase was 47 µM (active). In addition, the AC50 at Caspase-6 is 45 µM (active). In the case of `COc1cc(/C=C/C(=O)c2ccc(O)cc2)ccc1OCC#N`, the CC50 in the test on Vero was 31.9 µM (active). Besides, the EC50 in [3] was 2.34 µM (active); in test [4] it was 1.93 µM (active). For `Cc1ccc(OCC(=O)Nc2ccc3c4c(cccc24)CC3)c(C)c1`, in test [5], the CC50 is > 40 µM (active).

Consider `CC(NC(=O)c1ccc(Br)cc1)c1ccccc1` (configuration not stated), for which the EC50 in test [2] is > 120 µM (not active).

For `S=C(c1ccc(-c2ccccc2Cl)o1)N1CCOCC1`, in [6], the IC50 was 44.6 µM (active). With `CCNS(=O)(=O)c1ccc(-c2ccc(-n3cnnn3)cc2)cc1`, in test [7], the CC50 was > 40 µM (active). As for `COCCCN=C(S)NN=C(S)Nc1ccccc1`, in test [6], the IC50 was 16.4 µM (active).

As for `O=C(COC(=O)Cc1ccc(S(=O)(=O)N2CCOCC2)s1)Nc1ccc2c(c1)OCO2`, the EC50 in [2] is recorded as > 120 µM (not active). Consider `CCn1c(=N)n(CC(=O)c2ccc(Cl)c(Cl)c2)c2ccccc21`, for which the EC50 in [8] is 0.771 µM (active); in test [9] it was < 0.1 µM (active); with H4, > 120 µM (not active); in test [10] it was 0.474 µM (active); in test [11], 1.18 µM (active). In the test with Vero, the CC50 is 15.5 µM (active).

In the case of `CCN(CCCNC(=O)C1CCCN(S(=O)(=O)CC)C1)c1cccc(C)c1` (configuration not stated), the CC50 in test [7] was > 40 µM (active).

With `CC12CC[C@H]3[C@@H](CCC4(O)C[C@H](O)CCC34/C=N/NC(=O)c3ccccc3O)C1(O)CCC2C1=CC(=O)OC1` (some centres not stated), the CC50 with Vero was 22.2 µM (active). On to `O=[N+]([O-])c1cc([N+](=O)[O-])c2cccnc2c1Oc1ccccc1O`, for which the EC50 in test [1] is > 50 µM (active). Also, the IC50 at Aspartyl aminopeptidase is 3.27 µM (active); against Procathepsin L, > 59.6 µM (not active); at Large T antigen it was 7.81 µM (active); in test [12], 2.82 µM (active). Consider `COc1ccc([N+](=O)[O-])cc1C1NN=C(c2ccccc2O)S1` (configuration not stated), for which the CC50 in test [5] is > 40 µM (active).

Turning to `COc1ccc(/C=C2\SC(=S)NC2=O)cc1OS(=O)(=O)c1ccc(NC(C)=O)cc1`, at Aminopeptidase N, the IC50 was 29.8 µM (active). For the same compound, at Caspase-6, the AC50 is 17 µM (active).

Take `C=CCn1c(S)nnc1-c1cccc([N+](=O)[O-])c1`: the IC50 in [6] was 8.72 µM (active). Also, in [13], the AC50 was 9.06 µM (active).
